Source: US6033891A, “Nucleic acids encoding polypeptides having cellobiose dehydrogenase activity” (Novo Nordisk Biotech, Inc., priority 1999, dated 2000)
Like-named read-outs stand apart in the source and are kept apart here.

Biological target: T1, Humicola insolens cellobiose dehydrogenase, wild type (major form, 92 kDa, pI 4.0, purified from CELLUZYME), SEQ ID NO:2 (Mycothermus thermophilus, UniProt Q9P8H5)
T1 construct: mature 22-785 after 21-residue signal peptide
T1 sequence (Q9P8H5 22-785): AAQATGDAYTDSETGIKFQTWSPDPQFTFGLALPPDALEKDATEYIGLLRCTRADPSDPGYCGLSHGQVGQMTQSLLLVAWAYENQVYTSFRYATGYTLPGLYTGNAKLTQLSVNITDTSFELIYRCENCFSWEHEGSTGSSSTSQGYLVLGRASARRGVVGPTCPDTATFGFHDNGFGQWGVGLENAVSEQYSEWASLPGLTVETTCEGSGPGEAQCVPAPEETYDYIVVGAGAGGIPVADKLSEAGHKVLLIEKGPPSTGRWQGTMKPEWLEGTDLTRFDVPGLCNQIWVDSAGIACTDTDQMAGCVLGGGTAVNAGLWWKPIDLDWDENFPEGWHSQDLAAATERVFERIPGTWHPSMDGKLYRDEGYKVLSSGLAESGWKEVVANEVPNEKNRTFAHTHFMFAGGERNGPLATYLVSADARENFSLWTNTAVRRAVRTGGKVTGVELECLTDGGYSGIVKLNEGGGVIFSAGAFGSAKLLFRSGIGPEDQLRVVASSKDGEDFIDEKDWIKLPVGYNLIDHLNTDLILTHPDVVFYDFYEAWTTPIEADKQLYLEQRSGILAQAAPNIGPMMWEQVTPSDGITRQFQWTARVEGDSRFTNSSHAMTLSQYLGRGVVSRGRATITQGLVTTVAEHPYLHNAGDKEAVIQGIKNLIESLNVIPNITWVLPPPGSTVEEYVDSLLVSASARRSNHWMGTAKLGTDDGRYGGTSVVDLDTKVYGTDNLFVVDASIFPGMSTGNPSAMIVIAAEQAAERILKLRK
Test: Steady-state kinetics of cellobiose dehydrogenase with electron donors and acceptors (Lineweaver-Burke plots)
Type: biochemical
Conditions: 0.1 M sodium phosphate pH 7.5, 40° C.; for kcat (electron acceptor) / kcat (electron donor sugar): mol of oxidized cellobiose/s/mol of enzyme
Procedure: All absorption spectra and kinetic measurements were recorded on a Hewlett-Packard 8452A Diode Array Spectrophotometer in 0.75 ml black cuvettes with 1 cm optical path. The fluorescence spectra were recorded on a PERKIN ELMER LS 50.
Potassium ferricyanide (Merck): ε420 =970 M^-1.cm^-1, 3,5-di-tert-butyl-1,2-benzoquinone (Merck): ε410 =1,400 M^-1.cm^-1, Methylene Blue (Merck): ε610 =42,000 M^-1.cm^-1, cytochrome c (Sigma, from horse heart): ε550 =8,000 M^-1.cm^-1.
All measurements were performed in 0.1 M sodium phosphate pH 7.5 buffer at 40° C. […] The reactions were monitored for 400 s as changes in absorbance at the appropriate wavelength (see above). The benzoquinone was dissolved in ethanol to a concentration of 10 mM and diluted in phosphate buffer to the appropriate concentration. The catalytic constants (kcat) were expressed as mol of oxidized cellobiose/s/mol of enzyme. One equivalent of DCPIP, Methylene Blue, or benzoquinone oxidizes one equivalent of cellobiose whereas two equivalents of cytochrome c or ferricyanide oxidizes one equivalent of cellobiose. The kinetic constants were determined using Lineweaver-Burke plots and were the result of dual determinations.

[1] = electron acceptor + 225 μM cellobiose
[2] = electron acceptor + 225 μM cellobiose, read-out: Km (electron acceptor)
[3] = sugar + 90 μM DCPIP, read-out: Km (electron donor sugar)

CN(C)c1ccc2nc3ccc(=[N+](C)C)cc-3sc2c1 [Methylene Blue]
kcat (electron acceptor) [1]: 1.85 s⁻¹
Km [2]: 18 µM

OC[C@H]1OC(O)[C@H](O)[C@@H](O)[C@@H]1O (stereo partly drawn) [Glucose]
kcat (electron donor sugar) (sugar + 90 μM DCPIP): 0 s⁻¹

O=C1C(Cl)=CC(=Nc2ccc(O)cc2)C=C1Cl [DCPIP, 2,6-dichlorophenolindophenol]
kcat (electron acceptor) [1]: 12 s⁻¹
Km [2]: 26 µM

CC(=O)N[C@H]1C(O)O[C@H](CO)[C@@H](O[C@@H]2O[C@H](CO)[C@H](O)[C@H](O)[C@H]2O)[C@@H]1O (stereo partly drawn) [N-Acetyllactosamine, N-acetyllactosamine]
kcat (electron donor sugar) (sugar + 90 μM DCPIP): 0 s⁻¹

OC[C@H]1O[C@@H](O[C@H]2[C@H](O)[C@@H](O)C(O)O[C@@H]2CO)[C@H](O)[C@@H](O)[C@@H]1O (stereo partly drawn) [Cellobiose]
kcat (electron donor sugar) (sugar + 90 μM DCPIP): 10 s⁻¹
Km [3]: 11 µM

OC1OC[C@@H](O[C@@H]2OC[C@@H](O)[C@H](O)[C@H]2O)[C@H](O)[C@H]1O (stereo partly drawn) [Xylobiose]
kcat (electron donor sugar) (sugar + 90 μM DCPIP): 2.15 s⁻¹

OC[C@H]1O[C@@H](O[C@H]2[C@H](O)[C@@H](O)[C@H](O[C@H]3[C@H](O)[C@@H](O)[C@H](O[C@H]4[C@H](O)[C@@H](O)[C@H](O[C@H]5[C@H](O)[C@@H](O)C(O)O[C@@H]5CO)O[C@@H]4CO)O[C@@H]3CO)O[C@@H]2CO)[C@H](O)[C@@H](O)[C@@H]1O (stereo partly drawn) [Cellopentaose]
kcat (electron donor sugar) (sugar + 90 μM DCPIP): 8.3 s⁻¹

CC(=O)N[C@H]1[C@H](O[C@H]2[C@H](O)[C@@H](NC(C)=O)C(O)O[C@@H]2CO)O[C@H](CO)[C@@H](O)[C@@H]1O (stereo partly drawn) [N,N-Diacetylchitobiose, N,N-diacetylchitobiose]
kcat (electron donor sugar) (sugar + 90 μM DCPIP): 0 s⁻¹

OC[C@H]1O[C@H](O[C@H]2[C@H](O)[C@@H](O)[C@H](O)O[C@@H]2CO)[C@H](O)[C@@H](O)[C@@H]1O [Maltose]
kcat (electron donor sugar) (sugar + 90 μM DCPIP): 0.83 s⁻¹
Km [3]: 11000 µM

OC[C@H]1O[C@@H](O[C@H]2[C@H](O)[C@@H](O)C(O)O[C@@H]2CO)[C@H](O)[C@@H](O)[C@H]1O (stereo partly drawn) [Lactose]
kcat (electron donor sugar) (sugar + 90 μM DCPIP): 10 s⁻¹
Km [3]: 51 µM
